Measurements: patent US20160318866A1, “SUBSTITUTED BIPIPERIDINYL DERIVATIVES” (Bayer Pharma Aktiengesellschaft, priority 2013, published 2016)
Structures can show the parent of a compound that is named as a salt.

The molecules below were run against T1, human α2C receptor (Homo sapiens, UniProt P18825) (assay: Antagonism against the adrenoreceptor α2C (luminescence, recombinant CHO cell line)). Details: antagonism against adrenoreceptor α2C; noradrenaline 20 nM; tested up to 10 μM; read-out: IC50.
T1 construct: expressed in transfected cells; host or cells: CHO cells, also recombinantly expressing chimeric G protein Gαqi3 and mitochondrial obelin (mtOb)
T1 sequence (P18825 1-462): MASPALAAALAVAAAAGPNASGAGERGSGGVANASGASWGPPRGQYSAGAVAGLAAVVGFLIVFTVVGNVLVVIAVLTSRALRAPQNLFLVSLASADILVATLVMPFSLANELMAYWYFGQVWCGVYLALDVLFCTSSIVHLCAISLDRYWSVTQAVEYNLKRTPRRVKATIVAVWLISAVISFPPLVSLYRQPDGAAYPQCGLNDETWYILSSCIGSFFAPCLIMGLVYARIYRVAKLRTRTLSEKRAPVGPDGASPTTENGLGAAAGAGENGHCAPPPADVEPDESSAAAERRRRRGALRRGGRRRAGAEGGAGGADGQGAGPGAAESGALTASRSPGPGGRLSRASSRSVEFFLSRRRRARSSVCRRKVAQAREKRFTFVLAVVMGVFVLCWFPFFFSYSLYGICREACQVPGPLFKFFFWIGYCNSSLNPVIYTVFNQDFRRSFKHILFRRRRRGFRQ
Format: cell-based
Method in brief: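 CHO cells expressing human α2C receptor with chimeric Gαqi3 and mitochondrial obelin, loaded with 2.5 μg/ml coelenterazine for one day at 30 °C.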

Q: How did the IC50 turn out when `C[C@@H]1CCCN(C2CCN(C(=O)c3ccc(C(=O)N(C)Cc4c(F)cccc4F)cc3)CC2)C1` [Example 84, (R)—N-(2,6-Difluorobenzyl)-N-methyl-4-{[(3R)-3-methyl-1,4′-bipiperidin-1′-yl]carbonyl}benzamide trifluoroacetic acid salt] was run?
A: 0.003 µM

Q: With `C[C@@H]1CCCN(C2CCN(C(=O)c3ccc(C(=O)NC(c4ccc(C(F)(F)F)cc4)C(F)(F)F)cc3)CC2)C1` (stereo partly drawn) [Example 85, 4-{[(3R)-3-Methyl-1,4′-bipiperidin-1′-yl]carbonyl}-N-{2,2,2-trifluoro-1-[4-(trifluoromethyl)phenyl]ethyl}benzamide trifluoroacetic acid salt] as the molecule, how does the IC50 read?
A: 0.2 µM

Q: How did the IC50 turn out when `C[C@@H]1CCCN(C2CCN(C(=O)c3ccc(C(=O)NCc4cccc(OC(F)F)c4)cc3)CC2)C1` [Example 86, (R)—N-[3-(Difluoromethoxy)benzyl]-4-[(3-methyl-1,4′-bipiperidin-1′-yl)carbonyl]benzamide trifluoroacetic acid salt] was run?
A: 0.18 µM

Q: For `CC(NC(=O)c1ccc(C(=O)N2CCC(N3CCC[C@@H](C)C3)CC2)cc1)c1c(F)cccc1F` (stereo partly drawn) [Example 87, N-[1-(2,6-Difluorophenyl)ethyl]-4-{[(3R)-3-methyl-1,4′-bipiperidin-1′-yl]carbonyl}benzamide trifluoroacetic acid salt], which IC50 is on record?
A: 0.016 µM

Q: `C[C@@H]1CCCN(C2CCN(C(=O)c3ccc(C(=O)NCc4c(F)cccc4F)cc3)CC2)C1` [Example 88, N-(2,6-Difluorobenzyl)-4-{[(3R)-3-methyl-1,4′-bipiperidin-1′-yl]carbonyl}benzamide trifluoroacetic acid salt] was tested. Which IC50 did it give?
A: 0.011 µM

Q: How did the IC50 turn out when `C[C@@H]1CCCN(C2CCN(C(=O)c3ccc(C(=O)NC(CCO)c4ccccc4F)cc3)CC2)C1` (stereo partly drawn) [Example 89, N-[1-(2-Fluorophenyl)-3-hydroxypropyl]-4-{[(3R)-3-methyl-1,4′-bipiperidin-1′-yl]carbonyl}benzamide trifluoroacetic acid salt] was run?
A: 0.017 µM

Q: With `C[C@@H]1CCCN(C2CCN(C(=O)c3ccc(C(=O)NCc4cc(Cl)ccn4)cc3)CC2)C1` [Example 90, N-[(4-Chloropyridin-2-yl)methyl]-4-{[(3R)-3-methyl-1,4′-bipiperidin-1′-yl]carbonyl}benzamide] as the molecule, how does the IC50 read?
A: 0.028 µM

Q: `C[C@@H]1CCCN(C2CCN(C(=O)c3ccc(C(=O)NCc4ncc(Cl)cc4C(F)(F)F)cc3)CC2)C1` [Example 91, N-{[5-Chloro-3-(trifluoromethyl)pyridin-2-yl]methyl}-4-{[(3R)-3-methyl-1,4′-bipiperidin-1′-yl]carbonyl}benzamide] was tested. Which IC50 did it give?
A: 0.013 µM

Q: With `C[C@@H]1CCCN(C2CCN(C(=O)c3ccc(C(=O)NCc4cc(C(F)(F)F)c(Cl)cn4)cc3)CC2)C1` [Example 92, N-{[5-Chloro-4-(trifluoromethyl)pyridin-2-yl]methyl}-4-{[(3R)-3-methyl-1,4′-bipiperidin-1′-yl]carbonyl}benzamide] as the molecule, how does the IC50 read?
A: 0.16 µM

Q: With `CC(NC(=O)c1ccc(C(=O)N2CCC(N3CCC[C@@H](C)C3)CC2)cc1)c1ccncc1` (stereo partly drawn) [Example 93, 4-{[(3R)-3-Methyl-1,4′-bipiperidin-1′-yl]carbonyl}-N-[1-(pyridin-4-yl)ethyl]benzamide] as the molecule, how does the IC50 read?
A: 0.135 µM

Q: How did the IC50 turn out when `C[C@@H]1CCCN(C2CCN(C(=O)c3ccc(C(=O)NC(CO)c4ccccc4F)cc3)CC2)C1` (stereo partly drawn) [Example 94, N-[1-(2-Fluorophenyl)-2-hydroxyethyl]-4-{[(3R)-3-methyl-1,4′-bipiperidin-1′-yl]carbonyl}benzamide] was run?
A: 0.025 µM

Q: How did the IC50 turn out when `Cc1ncccc1CNC(=O)c1ccc(C(=O)N2CCC(N3CCC[C@@H](C)C3)CC2)cc1` [Example 95, 4-{[(3R)-3-Methyl-1,4′-bipiperidin-1′-yl]carbonyl}-N-[(2-methylpyridin-3-yl)methyl]benzamide] was run?
A: 0.047 µM

Q: For `COCC1CCCN(C2CCN(C(=O)c3ccc(C(=O)N(C)Cc4c(F)cccc4F)cc3)CC2)C1` (stereo not drawn) [Example 96, N-(2,6-Difluorobenzyl)-4-{[3-(methoxymethyl)-1,4′-bipiperidin-1′-yl]carbonyl}-N-methylbenzamide trifluoroacetic acid salt], which IC50 is on record?
A: 0.01 µM

Q: How did the IC50 turn out when `COCC1CCCN(C2CCN(C(=O)c3ccc(C(=O)NCc4ncc(F)cc4F)cc3)CC2)C1` (stereo not drawn) [Example 97, N-[(3,5-Difluoropyridin-2-yl)methyl]-4-{[3-(methoxymethyl)-1,4′-bipiperidin-1′-yl]carbonyl}benzamide trifluoroacetic acid salt] was run?
A: 0.01 µM

Q: `C[C@@H]1CCCN(C2CCN(C(=O)c3ccc(C(=O)NCc4ncccc4F)cc3)CC2)C1` [Example 98, N-[(3-Fluoropyridin-2-yl)methyl]-4-{[(3R)-3-methyl-1,4′-bipiperidin-1′-yl]carbonyl}benzamide] was tested. Which IC50 did it give?
A: 0.027 µM

Q: For `C[C@@H]1CCCN(C2CCN(C(=O)c3ccc(C(C)(C)O)c(Cl)c3)CC2)C1` [Example 99, [3-Chloro-4-(2-hydroxypropan-2-yl)phenyl][(3R)-3-methyl-1,4′-bipiperidin-1′-yl]methanone], which IC50 is on record?
A: 0.084 µM

Q: `C[C@@H]1CCCN(C2CCN(C(=O)c3ccc(C(=O)NC(C)(C)C)c(Cl)c3)CC2)C1` [Example 100, N-tert-Butyl-2-chloro-4-{[(3R)-3-methyl-1,4′-bipiperidin-1′-yl]carbonyl}benzamide formic acid salt] was tested. Which IC50 did it give?
A: 0.027 µM

Q: With `C[C@@H]1CCCN(C2CCN(C(=O)c3ccc(C(=O)NC(C)(C)C)cc3Cl)CC2)C1` [Example 101, N-tert-Butyl-3-chloro-4-{[(3R)-3-methyl-1,4′-bipiperidin-1′-yl]carbonyl}benzamide formic acid salt] as the molecule, how does the IC50 read?
A: 0.021 µM

Q: With `CC1CCCN(C2CCN(C(=O)c3ccc(C(=O)NC(C)(C)C)cc3F)CC2)C1` (stereo not drawn) [Example 102, N-tert-Butyl-3-fluoro-4-[(3-methyl-1,4′-bipiperidin-1′-yl)carbonyl]benzamide hydrochloride] as the molecule, how does the IC50 read?
A: 0.067 µM

Q: With `CC1CCCN(C2CCN(C(=O)c3ccc(C(=O)NC(C)(C)C)c(F)c3)CC2)C1` (stereo not drawn) [Example 103, N-tert-Butyl-2-fluoro-4-[(3-methyl-1,4′-bipiperidin-1′-yl)carbonyl]benzamide] as the molecule, how does the IC50 read?
A: 0.073 µM

Q: With `CC1=C(C)CN(C2CCN(C(=O)c3ccc(C(=O)Nc4c(C)noc4C)cc3)CC2)CC1` [Example 104, 4-{[4-(4,5-Dimethyl-3,6-dihydropyridin-1 (2H)-yl)piperidin-1-yl]carbonyl}-N-(3,5-dimethyl-1,2-oxazol-4-yl)benzamide] as the molecule, how does the IC50 read?
A: 0.009 µM

Q: With `COCC1CCCN(C2CCN(C(=O)c3ccc(C(=O)Nc4c(C)noc4C)cc3)CC2)C1` (stereo not drawn) [Example 105, N-(3,5-Dimethyl-1,2-oxazol-4-yl)-4-{[3-(methoxymethyl)-1,4′-bipiperidin-1′-yl]carbonyl}benzamide] as the molecule, how does the IC50 read?
A: 0.01 µM

Q: `CC(C)(C)OCC1CCCN(C2CCN(C(=O)c3ccc(C(C)(C)O)cc3)CC2)C1` (stereo not drawn) [Example 106, [3-(tert-Butoxymethyl)-1,4′-bipiperidin-1′-yl][4-(2-hydroxypropan-2-yl)phenyl]methanone] was tested. Which IC50 did it give?
A: 0.035 µM

Q: How did the IC50 turn out when `CC(C)(C)OCC1CCCN(C2CCN(C(=O)c3ccc(C(C)(C)C)cc3)CC2)C1` (stereo not drawn) [Example 107, [3-(tert-Butoxymethyl)-1,4′-bipiperidin-1′-yl](4-tert-butylphenyl)methanone] was run?
A: 0.09 µM

Q: How did the IC50 turn out when `CC(C)(O)c1ccc(C(=O)N2CCC(N3CCCC(COc4cccc(F)c4)C3)CC2)cc1` (stereo not drawn) [Example 108, {3-[(3-Fluorophenoxy)methyl]-1,4′-bipiperidin-1′-yl}[4-(2-hydroxypropan-2-yl)phenyl]methanone] was run?
A: 0.112 µM

Q: With `COCCc1noc(C2CCCN(C3CCN(C(=O)c4ccc(C(C)(C)C)cc4)CC3)C2)n1` (stereo not drawn) [Example 109, (4-tert-Butylphenyl){3[3-(2-methoxyethyl)-1,2,4-oxadiazol-5-yl]-1,4′-bipiperidin-1′-}methanone] as the molecule, how does the IC50 read?
A: 0.104 µM

Q: How did the IC50 turn out when `CC(C)(O)c1ccc(C(=O)N2CCC(N3CCCC(COC(F)(F)F)C3)CC2)cc1` (stereo not drawn) [Example 110, [4-(2-Hydroxypropan-2-yl)phenyl]{3-[(trifluoromethoxy)methyl]-1,4′-bipiperidin-1′-yl}methanone] was run?
A: 0.007 µM

Q: For `CC(C)(O)c1ccc(C(=O)N2CCC(N3CCCC(OCC4CCC4)C3)CC2)cc1` (stereo not drawn) [Example 111, [3-(Cyclobutylmethoxy)-1,4′-bipiperidin-1-yl][4-(2-hydroxypropan-2-yl)phenyl]methanone], which IC50 is on record?
A: 0.01 µM

Q: `CC(C)(O)c1ccc(C(=O)N2CCC(N3CCCC(OC4CC4)C3)CC2)cc1` (stereo not drawn) [Example 112, 3-(Cyclopropyloxy)-1,4′-bipiperidin-1′-yl][4-(2-hydroxypropan-2-yl)phenyl]methanone formic acid salt] was tested. Which IC50 did it give?
A: 0.358 µM

Q: `C[C@@H]1CCCN(C2CCN(C(=O)c3ccc(C(C)(C)O)c(F)c3)CC2)C1` [Example 113, [3-Fluoro-4-(2-hydroxypropan-2-yl)phenyl][(3R)-3-methyl-1,4′-bipiperidin-1′-yl]methanone] was tested. Which IC50 did it give?
A: 0.033 µM

Q: Which IC50 does the source give for `CCC1CCCN(C2CCN(C(=O)c3ccc(C(C)(C)O)cc3)CC2)C1` (stereo not drawn) [Example 114, [3-Ethyl-1,4′-bipiperidin-1′-yl][4-(2-hydroxypropan-2-yl)phenyl]methanone] here?
A: 0.072 µM

Q: For `CC(C)(O)c1ccc(C(=O)N2CCC(N3CCCC(COC4CC4)C3)CC2)cc1` (stereo not drawn) [Example 118, {3-[(Cyclopropyloxy)methyl]-1,4′-bipiperidin-1′-yl}[4-(2-hydroxypropan-2-yl)phenyl]methanone], which IC50 is on record?
A: 0.008 µM

Q: `COC(C)(C)c1ccc(C(=O)N2CCC(N3CCCC(COC(C)(C)C)C3)CC2)cc1` (stereo not drawn) [Example 119, [3-(tert-Butoxymethyl)-1,4′-bipiperidin-1′-yl][4-(2-methoxypropan-2-yl)phenyl]methanone] was tested. Which IC50 did it give?
A: 0.016 µM
